Experimental data: PMC3515450, “Mechanistic and Structural Understanding of Uncompetitive Inhibitors of Caspase-6” (PLoS ONE, 2012)
Read-outs that look alike come from different tables or passages of the source.

Assays:
caspase-6 [1] = biological target: T1, caspase-6 (Homo sapiens, UniProt P55212); test: Caspase-6 enzymatic assay with fluorogenic tetrapeptide substrates; format: biochemical
T1 construct: Residues 24-179 and 194-293 from caspase-6 cDNA (Origene) were cloned into pET-24b and pET-23b vectors; 6x histidine tag (C); made in house; host or cells: E. coli BL21 (DE3) pLysS
T1 sequence (P55212 24-179): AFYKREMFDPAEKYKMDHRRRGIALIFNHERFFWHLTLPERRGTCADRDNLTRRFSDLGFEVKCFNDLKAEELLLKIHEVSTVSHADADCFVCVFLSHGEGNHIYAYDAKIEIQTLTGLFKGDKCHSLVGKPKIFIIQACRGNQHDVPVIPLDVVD
T1 sequence (P55212 194-293): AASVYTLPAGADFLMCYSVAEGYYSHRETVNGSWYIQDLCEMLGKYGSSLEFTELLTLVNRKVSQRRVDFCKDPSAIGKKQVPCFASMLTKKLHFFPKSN
Method: The in vitro enzymatic caspase assays utilize synthetic tetrapeptide substrates labeled with the fluorophores Rhodamine110 (R110) or 7-amino-4-methylcoumarin (AMC) at the P1 aspartic acid (Asp) residue. All assays were performed in 384-well plates in 12 µL reaction volume consisting of enzyme, substrate and indicated concentration of inhibitor or DMSO in assay buffer (50 mM HEPES [pH 7.0], 25 mM MgSO4, 0.5 mM EGTA, 5 mM Glutathione (GSH), 0.01% Triton X-100 containing 0.1% Bovine Gamma Globulin (BGG)). All inhibitors were serially diluted in 100% DMSO prior to dilution in assay buffer and transfer to assay plate. DMSO was diluted into assay buffer similarly for blank wells (no enzyme or compound) and final DMSO concentration was 1%. The concentration of caspase-6 used in enzymatic reactions typically varied between 1–10 nM depending on substrate used. Unless otherwise indicated, substrate concentration was within 3-fold of the determined Kmapparent (5 µM (Ac-VEID)2R110 [Kmapp = 8 µM]; 5 µM (Ac-DEVD)2R110 [Kmapp = 8 µM]; 25 µM (Ac-IETD)2R110 [Kmapp = 70 µM]; 25 µM (Ac-WEHD)2R110 [Kmapp = 70 µM]; 10µM Ac-VEID-AMC [Kmapp = 16µM]; 5 µM Ac-VEID-R110 [Kmapp = 8 µM]). The concentration of substrate utilized in selectivity assays for each caspase isoform was also held as close to Kmapparent as reasonably achievable (Table S1). Caspases-3 and -7 were expressed and purified at Genentech as the catalytic domain consisting of large p20 and small p10 subunits without prodomain. For all caspase enzymatic assays, the reaction plate was incubated at room temperature for 40 minutes and then read on Envision (Perkin Elmer) fluorescent plate reader at excitation/emission wavelengths of 485/535 nm (R110) or 350/450 nm (AMC). […]
The endpoint fluorescent emission (RFU) in each well was plotted as a function of inhibitor concentration and the 50% inhibition (IC50) values were determined using a nonlinear least squares fit of the data to a four parameter equation using Prism 5.0 software (GraphPad Software, San Diego, CA). […] Ki values for Compound 3 were calculated using this equation: Ki = IC50/(Km/[S] +1). Concentration-response curves for each inhibitor were normalized to zero and 100% based on no enzyme or DMSO control, respectively. For steady-state kinetic analysis, initial reaction velocity (RFU/minute) was plotted against substrate concentration at each inhibitor concentration and the data was fit to a hyperbolic Michaelis-Menten model using Prism 5.0 software. Km (µM) and Vmax (RFU/minute) were calculated by using this equation: v = Vmax • [S]/Km+[S] where v = initial reaction velocity at indicated substrate concentration (S). Vmax values were normalized to zero and 100% based on no enzyme or DMSO control, respectively.
Expression and purification of caspase-6 for enzymatic assays: Human caspase-6 was expressed as the mature enzyme using a split construct. Residues 24-179 and 194-293 from caspase-6 cDNA (Origene) were cloned into pET-24b and pET-23b vectors (Novagen) respectively; the small subunit contained a C-terminal 6x histidine tag. Vectors were cotransfected into the E.coli strain BL21 (DE3) pLysS (Stratagene). Cells were grown from a single colony in 6L of 2xYT supplemented with ampicillin and kanamycin at 37 °C to an OD of ~ 0.5 and were subsequently cooled to 16 °C before overnight induction with 0.2 mM IPTG. Cells were harvested by centrifugation, resuspended in 100 mM NaCl, 100 mM Tris, pH 8.0, and lysed.

caspase-6 [2] = biological target: T1, caspase-6; test: Cleavage of Lamin A by purified human caspase-6 (western blot); format: biochemical; conditions: 100 µM concentration
Method: The assay to monitor cleavage of Lamin A by purified human caspase-6 is described in Experimental Procedures S1.
Cleavage of Lamin A by purified human Caspase-6: Recombinant caspase-6 was prepared at 6.6 nM final concentration in assay buffer (40 mM HEPES [pH 7.2], 100 mM NaCl, 1 mM EDTA, 2 mM DTT, 0.1% CHAPS, 3% DMSO), and pre-incubated at 37 °C with increasing concentrations (as indicated) of the compound to be assayed. After 30 minutes, GST-tagged Lamin A substrate (Abnova, Cat# H00004000-P01) was added to the reaction mix at a final concentration of 0.33 µM and the incubation was continued for 2 h at 37 °C. Samples were boiled for 5 min to terminate the proteolytic cleavage reaction before they were resolved by SDS-PAGE (10-20% Tris-glycine gel) and transferred to nitrocellulose. The blot was probed with mouse anti-Lamin A antibody (Abnova # H00004000-B01P) and detected with IRDye800 anti-mouse antibody (LI-COR #926-32210). […] Imaging was done on the LI-COR Odyssey® Infrared Imaging System using the 800 nm channel.

SMILES: COc1ccc(-c2cc(C(=O)N[C@@H](CO)Cc3cccc(C#N)c3)co2)cc1OC [Compound 3]
- Ki (caspase-6 [1]; (VEID)2R110 substrate, calculated from IC50): 4 nM
- fold weaker with (DEVD)2R110 than with (VEID)2R110 substrate (caspase-6 [1]; caspase-6): ~44 fold
- IC50 (caspase-6 [1]; caspase-6, (DEVD)2R110 substrate, read-out: IC50): 481 nM
- IC50 (caspase-6 [1]; caspase-6, (IETD)2R110 substrate, read-out: inhibition of (IETD)2R110 cleavage): ~100000 nM
- binding efficiency index (BEI; pIC50/molecular weight) (caspase-6 [1]; caspase-6, (VEID)2R110): 19.7
- IC50 (caspase-6 [1]; caspase-6, (WEHD)2R110 substrate, not inhibited up to this concentration, read-out: inhibition of (WEHD)2R110 cleavage): > 100000 nM
- IC50 (caspase-6 [1]; caspase-6, monovalent VEID-AMC substrate, read-out: IC50): 14000 nM
- IC50 (caspase-6 [1]; caspase-6 cleavage of (VEID)2R110 substrate, read-out: IC50 (potency)): 11 nM
- selectivity for caspase-6 cleavage of (VEID)2R110 compared to other caspase family members tested (caspase-6 [1]; versus caspases-3 and -7): near absolute selectivity
- inhibition of caspase-6 cleavage of recombinant Lamin A (caspase-6 [2]): did not inhibit
